From patent US5696113A, “Antipsychotic agents, compositions and method of use” (Hoechst Marion Roussel, Inc., priority 1996, dated 1997)
Where a name gives a salt, the structure may show the parent alone. Read-outs that look alike come from different tables or passages of the source.

How the values were obtained:
apomorphine climbing = assay: Climbing Mouse Assay (apomorphine-induced climbing); assay type: in vivo, mice (CK-1 male); details: ip, read-out: CLIMBING MOUSE ASSAY (ED50 mg/kg, ip)
Description: Antipsychotic activity is determined in the climbing mice assay by a method similar to those described by P. Protais, et al, Psychopharmacol.
Subject […] male mice (23-27 grams) are group-housed under standard laboratory conditions. The mice are individually placed in wire mesh stick cages (4"×10") and are allowed one hour for adaption and exploration of the new environment.
For evaluation of climbing, 3 readings are taken at 10, 20, and 30 minutes after apomorphine administration according to the following scale:
Mice consistently climbing before the injection of apomorphine are discarded.
With full-developed apomorphine climbing, the animals are hanging on to the cage walls, rather motionless, over long periods of time. By contrast, climbs due to mere motor stimulation usually only last a few seconds.
The climbing scores are individually totaled (maximal score: 6 per mouse over 3 readings) and the total score of the control group (vehicle intraperitoneally, apomorphine subcutaneously) is set to 100%.

[1] = tested on: dopamine neurons, ventral tegmental area (A10); assay: Chronic single-unit dopamine neuron sampling, A10 region; assay type: in vivo, male Wistar rats; details: ip, once a day for 21 days, vs vehicle; dose 20 mg/kg for the hydrobromide compound
Description: Dopamine Neuron Sampling.
Compounds were prepared as percent base.

[2] = tested on: dopamine neurons, substantia nigra (A9); assay: Chronic single-unit dopamine neuron sampling, A9 region; details: for % Change in A9 region (dopamine neuron sampling): ip, once a day for 21 days, vs vehicle, dose 20 mg/kg for the hydrobromide compound
Description: Dopamine Neuron Sampling. Male Wistar rats (280-360 grams) were used in this procedure. They were housed for at least 48 hours in a climate-controlled vivarium with food and water continuously available. Each rat was initially anesthetized with chloral hydrate (400 mg/kg ip) and maintained with additional injections as needed throughout the experiment. The animal was mounted in a stereotaxic apparatus (Kopf, model 900). The cranium was exposed, cleaned of connective tissue and dried. The skull overlying both the substantia nigra [A9:anterior (A) 3000-3400 microns, lateral (L) 1800-2400 microns from lambda)] and the ventral tegmental area (A10: A3000-3400 microns, L 400-1000 microns from lambda)^47 was removed. Using the dura as a point of reference, a micropipette driven by a hydraulic microdrive was lowered through the opening in the skull at vertical 6000-8500 microns. Spontaneously firing dopamine neurons within both the substantia nigra and the ventral tegmental areas were counted by lowering the electrode into twelve separate tracks (each track separated from the other by 200 microns) in each region. The sequence of the tracks was kept constant, forming a block of tissue which could be repoducibly located from animal to animal.
Extracellular neuronal signals were sampled using a single barrel micropipette approximately one micron at its tip, and filled with 2M NaCl saturated with 1% pontamine sky blue dye. The in vitro impedance of this piper (measured with a Winston Electronics Co., BL-1000 Micro Electrode Tester) was between 5 and 10 megaohms. […] Only cells whose electrophysiological characteristics matched those previously established for midbrain dopamine neurons were counted.
At the end of each experiment, the location of the last recorded track tip was marked by passing 25 microampere cathodal current through the recording micropipette barrel for 15 minutes in order to deposit a spot of dye. The rat was sacrificed; the brain was then removed, dissected and frozen on a bed of dry ice. Frozen serial sections (20 microns in width) were cut, mounted, and stained with cresyl violet and examined using a light microscope.
Animals pretreated with vehicle prior to neuronal sampling served as controls. Compounds were prepared as percent base. Each compound was suspended in distilled water and one drop of Tween 80, and kept constantly agitated during dosing. All compounds were delivered at a dodge volume of 1 mg/kg by the intraperitoneal route. For animals used in the chronic single-unit, dopamine neuron sampling assay, the compounds were administered once a day for 21 days, and dopamine neuron sampling was begun two hours after the last dose on the 21st day. […]

[3] = tested on: postsynaptic dopamine receptors; assay: Apomorphine stereotypy inhibition in rats (APO-S); assay type: in vivo, male Wistar rats; details: ip, apomorphine 1.5 mg/kg s.c.
Description: APOMORPHINE STEREOTYPY INHIBITION IN RATS
For a primary screen, a group size of six is used. Drug is administered one hour prior to scoring and the animals are placed in individual clear plastic cages (24×14×13 cm). The control group receives vehicle. Apomorphine is prepared at a concentration of 15 mg/10 ml in a […] ascorbic acid stock solution prepared with 30 mg of ascorbic acid in 100 ml of 1% saline to increase the stability of the apomorphine while in solution. […] Stereotypic behavior is noted 10 minutes later. […] Stereotypic behavior is defined as sniffing, licking or chewing behavior which occurs in a repetitive manner and is continuous for a 10-second period in the presence of white noise. The animal is considered protected if this behavior is interrupted. The percent effectiveness of a drug is determined by the number of animals protected in each group.
A dose-response is determined in the same manner as a primary screen except that a group size of 10 is used and the animals are dosed in a randomized manner. One group receives vehicle. ED50 values for inhibition of stereotypy are calculated by means of Litchfield and Wilcoxon Analysis.

[4] = molecular target: T1, 5HT2 Site (cerebral cortical membranes) (Rattus norvegicus, UniProt P14842); assay: 3H-Spiroperidol binding to cerebral cortical membranes (5HT2 site); parameters: species or system rats; details: 3H-spiroperidol 1.5 nM, 37° C., 10 min, pH 7.7
T1 construct: from tissue; host or cells: rat cerebral cortex (membranes)
T1 sequence (P14842 whole entry): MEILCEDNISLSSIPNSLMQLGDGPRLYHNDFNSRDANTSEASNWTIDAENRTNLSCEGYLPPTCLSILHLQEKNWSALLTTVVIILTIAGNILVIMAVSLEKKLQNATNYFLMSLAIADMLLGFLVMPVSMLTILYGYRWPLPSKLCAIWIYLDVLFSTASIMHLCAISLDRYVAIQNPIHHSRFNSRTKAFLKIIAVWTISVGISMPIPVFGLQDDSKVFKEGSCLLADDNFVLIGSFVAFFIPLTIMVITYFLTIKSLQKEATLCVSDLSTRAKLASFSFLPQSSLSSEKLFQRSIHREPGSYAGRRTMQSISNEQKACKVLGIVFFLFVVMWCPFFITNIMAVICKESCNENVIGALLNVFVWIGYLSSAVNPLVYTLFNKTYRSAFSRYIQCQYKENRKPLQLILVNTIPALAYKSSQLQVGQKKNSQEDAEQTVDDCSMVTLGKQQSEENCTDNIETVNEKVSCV
Description: (§1) D2 /5T-HT2 BINDING ASSAYS
^3 H-Spiroperidol Binding to Cerebral Cortical membranes (5HT2 Site) in Rats
Nonspecific binding was determined in the presence of 5 μM methysergide. The incubation was terminated by rapid filtration through Whatman GF/B filters.

[5] = molecular target: T2, D2-Dopaminergic Site (striatal membranes) (Rattus norvegicus, UniProt P61169); assay: 3H-Spiroperidol binding to striatal membranes (D2-dopaminergic site); parameters: species or system rats
T2 construct: from tissue; host or cells: rat striatum (membranes)
T2 sequence (P61169 whole entry): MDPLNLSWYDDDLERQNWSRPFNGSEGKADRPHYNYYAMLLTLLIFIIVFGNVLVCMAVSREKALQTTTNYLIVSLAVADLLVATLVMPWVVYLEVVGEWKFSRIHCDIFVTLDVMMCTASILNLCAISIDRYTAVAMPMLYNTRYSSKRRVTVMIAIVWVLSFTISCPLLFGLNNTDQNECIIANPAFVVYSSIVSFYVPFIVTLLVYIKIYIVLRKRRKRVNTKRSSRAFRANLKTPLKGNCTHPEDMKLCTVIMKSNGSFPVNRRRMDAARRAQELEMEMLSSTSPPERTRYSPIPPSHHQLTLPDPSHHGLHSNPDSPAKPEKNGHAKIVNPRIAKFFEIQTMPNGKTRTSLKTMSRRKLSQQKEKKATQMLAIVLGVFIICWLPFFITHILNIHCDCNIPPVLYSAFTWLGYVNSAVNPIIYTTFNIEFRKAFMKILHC
Description: as §1
^3 H-Spiroperidol Binding to Striatal Membranes (D2 -Dopaminergic Site) in Rats
Striatal membranes were incubated with ^3 H-spiroperidol (0.4 nM) and various concentrations of test drug at 37° C. for 10 minutes in 1 ml of 0.05 M Tris-HCl buffer, pH 7.7 containing 120 mM NaCl, 5 mM KCl, 2 mM CaCl2, and 1 mM MgCl2. Nonspecific binding was determined in the presence of 2μM(+)-butaclamol. Bound ligand was separated by rapid filtration through Whatman GF/B filters.

[6] = tested on: dopamine neurons, substantia nigra (A9); details: repeated administration; background statement; cited from earlier work
[7] = apomorphine 1.5 mg/kg s.c., linear regression

Row | SMILES | ED50 (apomorphine climbing) | % Change in A10 region (dopamine neuron sampling) [1] | % Change in A9 region (dopamine neuron sampling) [2] | number of DA neurons in the A9 area (EPS propensity) ([2]; result in words) | ED50 ([3]; Rattus norvegicus, Litchfield and Wilcoxon) | ED50 (apomorphine climbing; [7]) | IC50 [4] | IC50 ([5]; 3H-spiroperidol 0.4 nM, 37° C., 10 min, pH 7.7) | D2/5-HT2 ([5]; ratio of D2 IC50 to 5-HT2 IC50) | APOMORPHINE STEREOTYPY INHIBITION (% inhibition) ([3]; at 4.0 mg/kg) | depolarization inactivation of the DA neurons in the A9 area [6] | APOMORPHINE STEREOTYPY INHIBITION (ED50) ([3]; Litchfield and Wilcoxon)
1 | CN1CCN(C2=Nc3cc(Cl)ccc3Nc3ccccc32)CC1 [Clozapine] | 8.1 mg/kg | -79% | +37% | do not cause a decrease in the number of DA neurons in the A9 area | > 40 mg/kg | – | – | – | – | – | – | –
2 | COc1ccc2c(N3CCN(CCCC(=O)c4ccc(F)cc4)CC3)noc2c1 [Example 1b, 3-[1-(4'-Fluorobenzoyl)propyl-4-piperazine]-6-methoxy-1,2-benzisoxazole] | – | – | – | – | – | 5.28 mg/kg | – | – | – | – | – | –
3 | O=C(CCCN1CCN(c2noc3cc(O)ccc23)CC1)c1ccc(F)cc1 [Example 3, 3-[1-(4'-Fluorobenzoyl)propyl-4-piperazinyl]-6-hydroxy-1,2-benzisoxazole hydrobromide] | – | -44.9% | +1.4% | – | – | 0.4 mg/kg | 45 nM | 240 nM | 5.3 | 0% | – | –
4 | O=C(CCCN1CCC(O)(c2ccc(Cl)cc2)CC1)c1ccc(F)cc1 [Haloperidol] | – | -35% | -30% | – | – | 0.11 mg/kg | – | – | – | – | cause a depolarization inactivation of the DA neurons in the A9 area of the brain | 0.6 mg/kg
